{"source": "patent US7179821B2", "about": "“Method of treating of demyelinating diseases or conditions” (Aventis Pharmaceuticals Inc., priority 2001, dated 2007)", "key": {"[1]": {"system": "demyelinated area at the moderate compression injury site", "experiment": "Histological study of spinal cords, demyelinated area (luxol fast blue)", "type": "in vivo, rat", "procedure": "A study to test whether the treatment with HP184 affected the amount of myelin in rats with moderate long term spinal cord crush injury when administered long after spinal cord injury.\nThe spinal cords from rats described above in the assessment were used for this study.\n(50–60 mg/kg body weight, i.p.) and perfused transcardically—first with 100 mL 0.05M phosphate buffed saline (PBS) containing 0.1% heparin, followed by 300–500 mL of 4% paraformaldehyde (PFA). Segments T9 to L1 of the spinal cords were taken out, then cryo-protected in 30% sucrose solution and frozen at −70° C. in 10.24% polyvinyl alcohol and 4.26% polyethylene glycol.\nA segment of each cord including the lesion site plus 10 mm rostral and caudal to the lesion site was embedded in Tissue Tek medium. Serial sections were cut longitudinally at 20 μm intervals on a cryostat. Every third section was stained with luxol fast blue for myelin. The evaluation was performed by observers blinded as to treatment, on coded slides. Sections were examined under a light microscope for the extent of demyelination (the area without luxol fast blue staining).\nFor determinations of the maximal demyelinated area of the cord, the whole section was digitized on photographs using a Zeiss microscope. The extent of demyelination was measured at the lesion center using a computerized Bioquant BQ-TCW98 image analysis progrem by an investigator who was blind to treatment group.\nStatistical analysis was performed on a Macintosh computer using GB-Stat ppc 6.5.2. The histological results were analyzed by the Kruskal-Wallis nonparametric analysis of variance (ANOVA). Post hoc comparisons were made using Mann-Whitney U tests."}, "[2]": {"system": "RuR-induced flaccid paralysis", "experiment": "Antagonism of ruthenium red (RuR)-induced flaccid paralysis, flagpole test", "type": "in vivo, mouse", "procedure": "Method and Results: Groups of 4–5 mice (CD-1; Charles River; 25–35 grams) were separately but simultaneously injected ip with ruthenium red and vehicle (1% glacial acetic acid), ruthenium red and 4-AP, or ruthenium red and HP 184. The compound known as “8183” was also tested in this paradigm. Starting at 15 minutes after injections, mice were placed near a “flagpole” apparatus and their ability to support their own body weight (ie, to hold on to the flagpole and not fall) was recorded. Results were recorded as the number of mice that could support their own body weight versus the total number of mice tested. All experiments were performed between 2PM and 4:30PM."}, "[3]": {"system": "spinal cord crush-induced motor impairments", "experiment": "Acute treatment after moderate spinal cord crush (1.4 mm), Open Field Walking Scale", "type": "in vivo, rat"}, "[4]": {"system": "voltage-dependent K+ channels", "experiment": "Potassium channel currents in PC12 cells, patch clamp", "type": "cell-based", "settings": "10 μM, 200 msec clamp pulses to +40 mV from −80 mV, n=4", "procedure": "PC12 cells (ATCC, Rockville, Md.) were grown in Dulbecco's modified Eagle's media supplemented with 10% fetal bovine serum (GIBCO BRL Grand Island, N.Y.). Potassium channel currents were measured using standard patch clamp electrophysiolgy protocols as detailed previously (Rampe et al., 1998).\nPotassium channel currents were elicited by 200 msec clamp pulses to +40 mV from a holding potential of −80 mV. […] Application of HP184 (10 μM) reduced the amplitude of this current and enhanced the rate of current decay. When current was measured at the end of the pulse, HP184 reduced current amplitude by 75±4% (n=4). The results are consisent with the notion that HP184 acts as an antagonist of voltage-dependent K^+ channels by blocking an activated state."}, "[5]": {"system": "mouse pMCAO stroke model", "experiment": "Mouse pMCAO stroke model, infarct volume", "type": "in vivo", "settings": "−60 min (one hour prior to occlusion), infarct volume 24 hours later, vs vehicle treated mice", "procedure": "Methods: The experimental procedure was based on the method of Bachauβ et al (1992). Male CD-1 mice weighing 35–40 g were anaesthetized with chloral hydrate (400 mg/kg). Under an operating microscope, a 3 mm vertical skin incision was made 2 mm behind the right orbit. The temporal muscle was deflected and a small craniotomy carried out to expose the dura. The dura was incised and deflected and the distal part of the right […] exposed. The artery was occluded upstream to the main bifurcation by bipolar electroagulation with fine forceps. Infarct volume was measured 24 hours later using 2% triphenyltetrazolium chloride solution. In this experimental paradigm, HP 184 was orally administered to non-fasted mice (10 per group) one hour prior to occlusion. Infarct volume reduction was based on comparison to 1% acetic acid, vehicle, treated mice."}, "[6]": {"settings": "10 mg/kg ip with RuR 30 mg/kg ip, 15 min"}, "[7]": {"settings": "10 mg/kg ip with RuR 30 mg/kg ip, 30 min"}, "[8]": {"settings": "10 mg/kg ip with RuR 30 mg/kg ip, 45 min"}, "[9]": {"settings": "30 mg/kg ip with RuR 30 mg/kg ip, 15 min"}, "[10]": {"settings": "30 mg/kg ip with RuR 30 mg/kg ip, 30 min"}, "[11]": {"settings": "30 mg/kg ip with RuR 30 mg/kg ip, 45 min"}}, "note": "Where “and” joins values, the source holds several entries; their conditions need not be identical. Equal values may be shown once."}
{"molecule": "CCCN(c1ccncc1F)n1cc(C)c2ccccc21", "note": "[HP184, N-(3-fluoro-4-pyridinyl)-N-propyl-3-methyl-1H-indole-1-amine]", "values": [{"measurement": "extent of demyelination, comparison of the groups", "setting": "[1]; 3 mg/kg po", "result": "showed the least demyelination"}, {"measurement": "myelin at the site of injury", "setting": "[1]; 3 mg/kg/day by oral gavage from 35 to 41 days after moderate crush injury", "result": "more myelin at the site of injury"}, {"measurement": "myelinated / demyelinated area at the crush center, FIG. 7", "setting": "[1]; HP184 0.3, 1 or 3 mg/kg po or 4-AP 0.6 mg/kg ip, days 35–42 after moderate crush", "result": "significantly greater myelinated area than that of saline controls"}, {"measurement": "% of mice that could support their own body weight", "setting": "[2]; [6]", "result": "(93.3%)"}, {"measurement": "number of mice that could support their own body weight versus total tested", "setting": "[2]; [6]", "result": "14 out of 15"}, {"measurement": "% of mice that could support their own body weight", "setting": "[2]; [7]", "result": "(80%)"}, {"measurement": "number of mice that could support their own body weight versus total tested", "setting": "[2]; [7]", "result": "12 out of 15"}, {"measurement": "% of mice that could support their own body weight", "setting": "[2]; [8]", "result": "(73.3%)"}, {"measurement": "number of mice that could support their own body weight versus total tested", "setting": "[2]; [8]", "result": "11 out of 15"}, {"measurement": "% of mice that could support their own body weight", "setting": "[2]; [9]", "result": "(100%)"}, {"measurement": "number of mice that could support their own body weight versus total tested", "setting": "[2]; [9]", "result": "15 out of 15"}, {"measurement": "% of mice that could support their own body weight", "setting": "[2]; [10]", "result": "(100%)"}, {"measurement": "number of mice that could support their own body weight versus total tested", "setting": "[2]; [10]", "result": "15 out of 15"}, {"measurement": "% of mice that could support their own body weight", "setting": "[2]; [11]", "result": "(100%)"}, {"measurement": "number of mice that could support their own body weight versus total tested", "setting": "[2]; [11]", "result": "15 out of 15"}, {"measurement": "antagonism of the flaccid paralysis induced by ip RuR (conclusion)", "setting": "[2]; ip, doses of Table 3", "result": "can antagonize the flaccid paralysis"}, {"measurement": "rate and extent of improvement of OFT score", "setting": "[3]; 20 and 5 mg/kg ip within 15 minutes of crush, repeated days 2 and 3, FIG. 2", "result": "significantly different from vehicle treated rats"}, {"measurement": "rate and extent of improvement of OFT score", "setting": "[3]; po 5–10 minutes prior to crush, then once a day days 2 and 3, vs vehicle treated group, FIG. 3", "result": "improved for all doses"}, {"measurement": "reduction of current amplitude at the end of the pulse", "setting": "[4]", "result": "75±4", "unit": "%"}, {"measurement": "% infarct volume reduction mean sem", "setting": "[5]; 1 mg/kg po", "result": "21 ± 3", "unit": "%"}, {"measurement": "% infarct volume reduction mean sem", "setting": "[5]; 10 mg/kg po", "result": "40 ± 2.5 % and 32 ± 11 %"}]}
